According to ChEMBL document CHEMBL1135541, “Synthesis, biological properties, and molecular modeling investigation of the first potent, selective, and water-soluble human A(3) adenosine receptor antagonist” (J Med Chem, 2002):

What was measured:
[1] = molecular target: T1, Adenosine receptor A3 (Homo sapiens) (UniProt P0DMS8); details: CHO
T1 sequence (whole entry): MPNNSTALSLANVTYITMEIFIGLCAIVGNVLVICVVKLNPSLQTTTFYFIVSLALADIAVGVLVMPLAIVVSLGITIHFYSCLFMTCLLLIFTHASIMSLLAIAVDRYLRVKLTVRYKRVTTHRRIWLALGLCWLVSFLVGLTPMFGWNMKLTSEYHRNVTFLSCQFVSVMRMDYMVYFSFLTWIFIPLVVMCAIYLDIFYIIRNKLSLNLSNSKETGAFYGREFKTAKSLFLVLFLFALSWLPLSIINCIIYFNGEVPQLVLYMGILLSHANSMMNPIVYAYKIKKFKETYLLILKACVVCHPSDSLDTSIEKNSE
Description: Antagonistic activity against Cl-IB-MECA26-induced inhibition of forskolin-stimulated cAMP in CHO cells expressing human Adenosine A3 receptor

[2] = The hydrophobicity was measured in reverse-phase TLC experiments and reported as Rm values; Rm = log(1/Rf - 1)
[3] = molecular target: T2, Adenosine receptor A3 (Rattus norvegicus) (UniProt P28647); details: RBL-2H3, 1 uM
T2 sequence (whole entry): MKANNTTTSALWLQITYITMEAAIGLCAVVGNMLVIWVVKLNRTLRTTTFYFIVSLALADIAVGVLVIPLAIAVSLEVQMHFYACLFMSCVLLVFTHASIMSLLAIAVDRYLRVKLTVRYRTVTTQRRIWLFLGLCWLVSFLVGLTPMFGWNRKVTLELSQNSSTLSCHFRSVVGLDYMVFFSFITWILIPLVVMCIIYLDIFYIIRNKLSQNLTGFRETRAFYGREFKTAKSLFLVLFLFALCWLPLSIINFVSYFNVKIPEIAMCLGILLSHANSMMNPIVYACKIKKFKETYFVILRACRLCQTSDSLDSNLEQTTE
Description: Inhibitory activity against binding of [125I]I-AB-MECA to Adenosine A3 receptor in membranes of rat basophilic RBL-2H3 cells at 1 uM

Adenosine receptor A3 [4] = molecular target: T3, Adenosine receptor A3 (Rattus norvegicus, UniProt P28647); experiment: Binding affinity against rat adenosine A3 receptor in RBL-2H3 cells; assay type: cell-based
T3 sequence (P28647 whole entry): T2 sequence (whole entry)

Adenosine receptor A1 = molecular target: T4, Adenosine receptor A1 (Rattus norvegicus, UniProt P25099); experiment: Binding affinity against rat adenosine A1 receptor […]; assay type: cell-based
T4 sequence (P25099 whole entry): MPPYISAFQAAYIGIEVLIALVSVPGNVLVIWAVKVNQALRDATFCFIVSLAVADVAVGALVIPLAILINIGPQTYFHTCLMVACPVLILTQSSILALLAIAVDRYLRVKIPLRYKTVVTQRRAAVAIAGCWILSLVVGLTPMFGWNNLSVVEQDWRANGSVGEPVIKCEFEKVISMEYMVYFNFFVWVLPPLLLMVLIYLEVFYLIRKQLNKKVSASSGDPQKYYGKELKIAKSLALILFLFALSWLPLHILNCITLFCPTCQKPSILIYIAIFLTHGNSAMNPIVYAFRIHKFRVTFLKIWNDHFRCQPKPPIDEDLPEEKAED

Adenosine receptor A2a = Adenosine receptor A2a (Rattus norvegicus, UniProt P30543); experiment: Binding affinity against rat adenosine A2A receptor […]; assay type: cell-based
Adenosine receptor A3 [5] = molecular target: T5, Adenosine receptor A3 (Homo sapiens, UniProt P0DMS8); experiment: Inhibitory activity against Human Adenosine A3 receptor expressed in CHO cells; assay type: cell-based
T5 sequence (P0DMS8 whole entry): T1 sequence (whole entry)

[6] = molecular target: Adenosine receptors; A1 & A3 (Homo sapiens) (UniProt P30542+P0DMS8); experiment: Selectivity as ratio of Ki for human adenosine A1 and A3 receptors; assay type: protein assay
[7] = molecular target: Adenosine receptors; A2b & A3 (Homo sapiens) (UniProt P29275+P0DMS8); experiment: Selectivity as ratio of Ki for human A2b and A3 receptors; assay type: protein assay
[8] = molecular target: Adenosine receptors; A2a & A3 (Homo sapiens) (UniProt P0DMS8+P29274); experiment: Selectivity as ratio of Ki for human adenosine A2A and A3 receptors; assay type: protein assay
Adenosine receptors; A2a & A3 (Homo sapiens), sequence (P29274 whole entry, looked up, one chain of several): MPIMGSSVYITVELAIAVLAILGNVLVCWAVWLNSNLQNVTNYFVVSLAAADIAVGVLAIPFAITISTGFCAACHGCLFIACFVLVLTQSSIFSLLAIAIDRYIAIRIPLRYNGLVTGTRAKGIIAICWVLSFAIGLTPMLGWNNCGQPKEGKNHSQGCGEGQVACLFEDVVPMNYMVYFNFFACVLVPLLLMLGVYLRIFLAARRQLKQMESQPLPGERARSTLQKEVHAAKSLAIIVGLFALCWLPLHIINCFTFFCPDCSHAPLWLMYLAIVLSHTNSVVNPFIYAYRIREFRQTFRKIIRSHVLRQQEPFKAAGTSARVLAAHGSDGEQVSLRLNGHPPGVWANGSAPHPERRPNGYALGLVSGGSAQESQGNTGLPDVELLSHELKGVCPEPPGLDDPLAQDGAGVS

Adenosine receptor A2a, sequence (P30543 whole entry): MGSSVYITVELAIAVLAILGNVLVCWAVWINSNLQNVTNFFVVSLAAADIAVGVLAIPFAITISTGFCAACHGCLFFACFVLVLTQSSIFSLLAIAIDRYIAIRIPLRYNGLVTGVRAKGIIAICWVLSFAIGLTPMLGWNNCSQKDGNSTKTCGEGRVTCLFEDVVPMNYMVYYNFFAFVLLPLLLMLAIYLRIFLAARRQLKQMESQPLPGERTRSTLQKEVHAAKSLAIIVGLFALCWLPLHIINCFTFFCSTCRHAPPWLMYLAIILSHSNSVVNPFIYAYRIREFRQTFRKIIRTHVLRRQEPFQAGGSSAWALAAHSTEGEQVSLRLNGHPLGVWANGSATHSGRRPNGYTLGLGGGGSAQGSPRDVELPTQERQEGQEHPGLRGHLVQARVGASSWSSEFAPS

Compound | K B [1] [nM] | Rm [2] | inhibition [3] [%] | Ki (Adenosine receptor A3 [4]) [nM] | Ki (Adenosine receptor A1) [nM] | Ki (Adenosine receptor A2a) [nM] | IC50 (Adenosine receptor A3 [5]) [nM] | Selectivity [6] | Selectivity [7] | Selectivity [8]
Cn1cc2c(nc(NC(=O)Nc3ccncc3)n3nc(-c4ccco4)nc23)n1 | 0.2 | 3.06 | 35 | > 1000 | 226 | 97.6 |  |  |  | 
Cn1cc2c(nc(NC(=O)Nc3ccccc3)n3nc(-c4ccco4)nc23)n1 |  |  |  |  |  |  | 2.1 | 3710 | 1390 | 2380
Cn1cc2c(nc(NC(=O)Nc3ccc(S(=O)(=O)O)cc3)n3nc(-c4ccco4)nc23)n1 |  |  |  |  |  |  |  | > 400 | > 400 | 24
